Laboratory results: US20250171431A1, “HETEROCYCLIC INHIBITORS OF IGF-1R FOR TREATMENT OF DISEASE” (HORIZON THERAPEUTICS IRELAND DAC, priority 2023, published 2025)

What was measured:
[1] = biological target: T1, IGF-1R (Homo sapiens (Human), UniProt P08069); assay: Example B-2: IGF-1R Assay (PathHunter cell lines, EC80 agonist challenge); assay type: cell-based; details: read-out: IC50 (Biological Activity against IGF-1R)
Summary of the method: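 PathHunter cells were pre-incubated with compound for 60 min at 37° C. (1% vehicle), then challenged with EC80 agonist for 3 hours at room temperature. Chemiluminescent detection followed after 1 h. Percent inhibition was calculated relative to EC80 and vehicle controls, and IC50 values were binned into categories.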
Target sequence in this assay (P08069 31-1367, species assumed): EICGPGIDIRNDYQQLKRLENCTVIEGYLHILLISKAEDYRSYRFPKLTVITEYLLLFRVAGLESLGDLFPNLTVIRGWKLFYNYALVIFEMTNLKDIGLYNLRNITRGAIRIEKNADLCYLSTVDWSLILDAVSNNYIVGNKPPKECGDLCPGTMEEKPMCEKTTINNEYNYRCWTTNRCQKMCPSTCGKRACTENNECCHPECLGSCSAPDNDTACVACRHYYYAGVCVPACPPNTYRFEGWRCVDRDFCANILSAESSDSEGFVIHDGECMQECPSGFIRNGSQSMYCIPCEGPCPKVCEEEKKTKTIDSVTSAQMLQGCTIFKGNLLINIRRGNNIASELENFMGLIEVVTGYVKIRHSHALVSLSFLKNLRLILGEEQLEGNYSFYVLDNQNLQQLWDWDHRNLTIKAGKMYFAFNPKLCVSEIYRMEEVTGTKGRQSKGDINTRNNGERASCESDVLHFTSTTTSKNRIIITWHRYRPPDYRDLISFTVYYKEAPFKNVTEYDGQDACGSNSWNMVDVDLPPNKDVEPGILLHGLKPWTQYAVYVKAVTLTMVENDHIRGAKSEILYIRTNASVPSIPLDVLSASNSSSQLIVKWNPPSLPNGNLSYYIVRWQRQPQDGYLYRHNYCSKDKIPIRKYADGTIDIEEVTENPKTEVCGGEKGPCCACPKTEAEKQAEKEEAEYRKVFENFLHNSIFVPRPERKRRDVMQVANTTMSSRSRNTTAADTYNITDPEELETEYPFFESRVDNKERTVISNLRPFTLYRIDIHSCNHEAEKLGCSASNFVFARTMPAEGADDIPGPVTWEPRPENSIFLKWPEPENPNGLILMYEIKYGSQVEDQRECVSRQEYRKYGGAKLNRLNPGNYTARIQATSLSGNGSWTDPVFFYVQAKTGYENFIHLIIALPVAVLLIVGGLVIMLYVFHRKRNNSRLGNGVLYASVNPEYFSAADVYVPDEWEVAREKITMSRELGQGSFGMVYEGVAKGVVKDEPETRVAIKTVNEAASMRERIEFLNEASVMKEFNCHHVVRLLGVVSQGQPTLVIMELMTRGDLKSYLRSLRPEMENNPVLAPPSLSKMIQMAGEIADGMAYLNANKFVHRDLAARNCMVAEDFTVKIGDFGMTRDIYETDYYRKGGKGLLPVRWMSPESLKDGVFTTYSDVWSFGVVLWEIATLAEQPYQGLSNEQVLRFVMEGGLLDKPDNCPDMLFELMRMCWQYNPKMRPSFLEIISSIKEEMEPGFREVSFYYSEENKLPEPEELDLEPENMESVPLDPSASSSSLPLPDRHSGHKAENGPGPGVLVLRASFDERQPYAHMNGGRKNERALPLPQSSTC

[2] = biological target: T1, IGF-1R; assay: Example B-1: IGF-1R Assay (PC3 cells, IGF1 stimulation, AlphaLISA); assay type: cell-based; details: 200 ng/mL IGF1 stimulation, read-out: Biological Activity against IGF-1R IC50
Summary of the method: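 PC3 cells were serum-starved 2 h, treated with serially diluted compounds for 2 h, then stimulated with IGF1 (200 ng/mL final) for 30 min. Lysates were read by AlphaLISA; % inhibition was calculated relative to vehicle and EC80 controls, with IC50 values binned into ranges.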
Target sequence in this assay (P08069 31-1367): as the sequence (P08069 31-1367, species assumed) above

Compound | IC50 [1] [µM] | IC50 [2] [µM]
c1ccc2ncc(Nc3ccnc(Nc4ccc5ccn(CC6CCCCC6)c5c4)n3)cc2c1 [Compound 503, 2-[1-(cyclohexylmethyl)-6-indolylamino]-4-(3-quinolylamino)pyrimidine] | 2 to 10 | 2 to 10
c1ccc2ncc(Nc3ccnc(Nc4ccc5c(c4)OCCO5)n3)cc2c1 [Compound 505, 2-(2,3-dihydro-1,4-benzodioxin-6-ylamino)-4-(3-quinolylamino)pyrimidine] | ≤ 0.5 | ≤ 0.5
